We go through 20 molecules from patent publication US6653300B2, “Pyrazole compounds useful as protein kinase inhibitors” (Vertex Pharmaceuticals Incorporated, priority 2000, dated 2003).

What is called Ki is a measure of affinity in units of concentration, obtained from inhibition or displacement. One may read the melting point as the temperature, or range, at which the solid turns liquid.

Like-named read-outs stand apart in the source and are kept apart here. Where only a bound is given, the exact number is not on record here.

Data set [1] concerns the target T1, human Src kinase (Homo sapiens, UniProt P12931).
T1 construct: full length recombinant human Src kinase (from Upstate Biotechnology, cat. no. 14-117); purchased Upstate Biotechnology 14-117; host or cells: baculo viral cells
The experiment in a line: SRC inhibition assay (radioactivity-based or spectrophotometric assay). The note with it: recombinant human Src kinase, assay A or B. It is filed as biochemical. The procedure:
The compounds were evaluated as inhibitors of human Src kinase using either a radioactivity-based assay or spectrophotometric assay. The compounds were assayed as inhibitors of full length recombinant human Src kinase (from Upstate Biotechnology, cat. no. 14-117) expressed and purified from baculo viral cells. […] P-0275). […] In a typical assay, all the reaction components with the exception of ATP were pre-mixed and aliquoted into assay plate wells. […] The assay plate was incubated at 30° C. for 10 min before initiating the reaction with ^33P-ATP. After 20 min of reaction, the reactions were quenched with 150 μl of 10% trichloroacetic acid (TCA) containing 20 mM Na3PO4. The quenched samples were then transferred to a 96-well filter plate (Whatman, UNI-Filter GF/F Glass Fiber Filter, cat no. 7700-3310) installed on a filter plate vacuum manifold. Filter plates were washed four times with 10% TCA containing 20 mM Na3PO4 and then 4 times with methanol. 200 μl of scintillation fluid was then added to each well. The plates were sealed and the amount of radioactivity associated with the filters was quantified on a TopCount scintillation counter. The radioactivity incorporated was plotted as a function of the inhibitor concentration. The data was fitted to a competitive inhibition kinetics model to get the Ki for the compound. The ADP produced from ATP by the human recombinant Src kinase-catalyzed phosphorylation of poly Glu-Tyr substrate was quanitified using a coupled enzyme assay (Fox et al (1998) Protein Sci 7, 2249). In this assay one molecule of NADH is oxidised to NAD for every molecule of ADP produced in the kinase reaction. The disappearance of NADH can be conveniently followed at 340 nm. […] In a typical assay, all the reaction components with the exception of ATP were pre-mixed and aliquoted into assay plate wells. […] The absorbance change at 340 nm with time, the rate of the reaction, was monitored on a molecular devices plate reader. The data of rate as a function of the inhibitor concentration was fitted to competitive inhibition kinetics model to get the Ki for the compound.

In data set [2] the target is T2, Aurora-2 (Homo sapiens, UniProt O14965).
T2 sequence (O14965 1-403): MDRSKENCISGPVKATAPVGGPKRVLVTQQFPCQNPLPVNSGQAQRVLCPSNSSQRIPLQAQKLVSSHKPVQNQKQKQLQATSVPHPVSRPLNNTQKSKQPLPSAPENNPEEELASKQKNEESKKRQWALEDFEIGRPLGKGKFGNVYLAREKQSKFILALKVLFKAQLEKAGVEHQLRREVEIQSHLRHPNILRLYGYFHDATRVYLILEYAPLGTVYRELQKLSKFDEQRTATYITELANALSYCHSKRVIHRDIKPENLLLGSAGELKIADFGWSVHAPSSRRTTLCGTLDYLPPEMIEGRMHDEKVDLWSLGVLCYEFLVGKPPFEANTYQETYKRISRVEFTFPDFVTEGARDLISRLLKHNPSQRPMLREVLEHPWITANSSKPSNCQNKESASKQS
The data set is described as follows: Ki determination for the inhibition of Aurora-2 (coupled enzyme assay). Type of data set: biochemical. Conditions: 70 nM Aurora-2, 30° C. The method, boiled down:
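Ki came from reaction rates plotted against inhibitor concentration, with rates taken as A340 decrease over 5 min at 30° C. Enzyme (70 nM final) was added after 10 min compound preincubation; stock buffer held […], 800 μM LRRASLG, PK/LDH coupling, pH 7.5.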

Data set [3] concerns the target T3, GSK-3β (AA 1-420) (Homo sapiens, UniProt P49841).
T3 construct: GSK-3β (AA 1-420)
The experiment in a line: Ki determination for the inhibition of GSK-3 (coupled enzyme system). It is filed as biochemical. The note with it: 20 μM ATP, 20 nM GSK-3β, 30° C. The method, boiled down: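 GSK-3β (AA 1-420, 20 nM) was run in a pyruvate kinase/LDH-coupled NADH assay in 100 mM HEPES pH 7.5, 10 mM MgCl2, 25 mM NaCl, 1 mM DTT, 1.5% DMSO, with 300 μM phosphopeptide substrate. Compound (0.002–30 μM) was preincubated 10 min at 30° C, then 20 μM ATP was added.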

T3 sequence (P49841 whole entry, the tested form may be a part): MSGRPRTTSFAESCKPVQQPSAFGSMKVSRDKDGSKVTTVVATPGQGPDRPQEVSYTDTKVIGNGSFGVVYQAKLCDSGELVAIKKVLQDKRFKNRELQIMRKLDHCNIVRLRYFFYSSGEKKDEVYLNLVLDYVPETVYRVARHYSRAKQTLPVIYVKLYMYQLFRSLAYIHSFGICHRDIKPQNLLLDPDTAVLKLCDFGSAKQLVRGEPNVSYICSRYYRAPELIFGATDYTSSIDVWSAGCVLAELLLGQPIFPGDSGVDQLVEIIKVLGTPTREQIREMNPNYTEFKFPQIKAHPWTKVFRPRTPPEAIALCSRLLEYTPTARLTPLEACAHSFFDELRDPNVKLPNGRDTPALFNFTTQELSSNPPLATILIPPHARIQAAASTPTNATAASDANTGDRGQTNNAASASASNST
T1 sequence (P12931 whole entry): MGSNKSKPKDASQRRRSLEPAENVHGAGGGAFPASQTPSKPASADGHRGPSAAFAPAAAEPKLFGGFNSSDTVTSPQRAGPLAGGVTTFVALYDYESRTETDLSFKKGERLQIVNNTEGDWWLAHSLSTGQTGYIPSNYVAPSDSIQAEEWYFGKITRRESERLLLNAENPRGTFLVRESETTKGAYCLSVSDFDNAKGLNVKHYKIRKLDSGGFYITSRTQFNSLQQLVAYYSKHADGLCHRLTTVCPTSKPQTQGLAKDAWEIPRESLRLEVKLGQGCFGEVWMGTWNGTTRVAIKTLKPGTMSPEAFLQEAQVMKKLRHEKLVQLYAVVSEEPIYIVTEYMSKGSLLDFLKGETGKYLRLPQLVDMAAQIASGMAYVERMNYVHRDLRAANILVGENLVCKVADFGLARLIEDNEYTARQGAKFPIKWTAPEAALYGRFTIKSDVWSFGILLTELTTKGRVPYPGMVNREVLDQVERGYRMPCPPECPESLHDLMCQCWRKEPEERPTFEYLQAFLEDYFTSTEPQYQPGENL

Take `Clc1cccc(Sc2nc(Nc3cc(C4CC4)[nH]n3)c3ccccc3n2)c1Cl` [IIa-30, (5-Cyclopropyl-2H-pyrazol-3-yl)-[2-(2,3-dichlorophenylsulfanyl)-quinazolin-4-yl]-amine]: the melting point fell in the range of 250 to 252 °C. The Ki in data set [1] (read-out: Ki value on SRC) is below 100 nM. In addition, the Ki in data set [2] is below 100 nM. For the same molecule, the Ki in data set [3] is below 100 nM.

Take `Cc1cc(Nc2nc(Sc3ccc(NS(=O)(=O)C(C)C)cc3)nc3ccccc23)n[nH]1` [IIa-48, [2-(4-Isopropanesulfonylamino-phenylsulfanyl)-quinazolin-4-yl]-(5-methyl-2H-pyrazol-3-yl)-amine]: the melting point is 294 to 297 °C. The Ki in data set [1] (read-out: Ki value for SRC) is 1000 to 6000 nM. Further, the Ki in data set [2] is below 100 nM. Further, in data set [3], the Ki is 100 to 1000 nM.

As for `Cc1cc(Nc2nc(Sc3ccc(NC(=O)CCN(C)C)cc3)nc3ccccc23)n[nH]1` [IIa-71, {2-[4-(3-Dimethylamino-propionylamino)-phenylsulfanyl]-quinazolin-4-yl}-(5-methyl-2H-pyrazol-3-yl)-amine], the melting point is 280 °C (dec.). Moreover, in data set [1] (read-out: Ki value for SRC), the inhibitory constant (Ki) fell in the range of 1000 to 6000 nM. In data set [2], this molecule registered an inhibition constant Ki below 100 nM. In data set [3], this molecule registered an inhibitory constant (Ki) of 1000 to 7000 nM.

In the case of `c1ccc2c(Nc3cc(C4CC4)[nH]n3)nc(Nc3ccc4c(c3)CCC4)nc2c1` [IIc-21, (5-Cyclopropyl-2H-pyrazol-3-yl)-[2-(indan-5-ylamino)-quinazolin-4-yl]-amine], the melting point fell in the range of 199 to 204 °C. Further, the Ki in data set [1] (read-out: Ki value on SRC) is below 100 nM. The inhibition constant Ki in data set [2] was below 100 nM. For the same molecule, in data set [3], the inhibition constant Ki was below 100 nM.

For `Cc1cccc(Oc2nc(Nc3cc(C4CC4)[nH]n3)c3ccccc3n2)c1` [IIb-5, (5-Cyclopropyl-2H-pyrazol-3-yl)-[2-(3-methylphenoxy)-quinazolin-4-yl]-amine], the melting point is 283 to 284 °C. Besides, in data set [1] (read-out: Ki value on SRC), the Ki is below 100 nM. In data set [2], this molecule had a Ki below 100 nM. The Ki in data set [3] was below 100 nM.

`Cc1cc(Nc2nc(Sc3ccc(C(=O)NCCCN(C)C)cc3)nc3ccccc23)n[nH]1` [IIa-70, {2-[4-(3-Dimethylamino-propylcarbamoyl)-phenylsulfanyl]-quinazolin-4-yl}-(5-methyl-2H-pyrazol-3-yl)-amine]: the melting point fell in the range of 210 to 213 °C. For the same molecule, the Ki in data set [1] (read-out: Ki value for SRC) is 1000 to 6000 nM. The molecule further had a Ki in data set [2] of 100 to 1000 nM.

`CC(=O)Nc1ccc(Nc2nc(Nc3cc(C4CC4)[nH]n3)c3ccccc3n2)cc1C` [IIc-23, [2-(4-Acetamido-3-methylphenylamino)-quinazolin-4-yl]-(5-cyclopropyl-2H-pyrazol-3-yl)-amine]: the melting point was > 188 °C (dec.). In addition, the Ki in data set [1] (read-out: Ki value on SRC) was below 100 nM. In addition, the inhibitory constant (Ki) in data set [2] is below 100 nM. In data set [3], this molecule gave an inhibition constant Ki of 100 to 1000 nM.

As for `c1ccc(OCCNc2nc(Nc3cc(C4CC4)[nH]n3)c3ccccc3n2)cc1` [IIc-34, (5-Cyclopropyl-2H-pyrazol-3-yl)-[2-(2-phenoxyethylamino)-quinazolin-4-yl]-amine], the melting point came out at 203 °C. Also, the Ki in data set [1] (read-out: Ki value on SRC) is below 100 nM. The molecule also showed an inhibition constant (Ki) in data set [2] below 100 nM. In data set [3], this molecule registered a Ki of 100 to 1000 nM.

`Cc1cc(Nc2nc(Sc3ccccc3N)nc3ccccc23)n[nH]1` [IIa-20, [2-(2-Aminophenylsulfanyl)-quinazolin-4-yl]-(5-methyl-2H-pyrazol-3-yl)-amine]: the Ki is 1000 to 6000 nM in data set [1] (read-out: Ki value for SRC), 100 to 1000 nM in data set [2] and 100 to 1000 nM in data set [3].

In turn, `Clc1ccccc1Sc1nc(Nc2cc(C3CC3)[nH]n2)c2ccccc2n1` [IIa-32, [2-(2-Chlorophenylsulfanyl)-quinazolin-4-yl]-(5-cyclopropyl-2H-pyrazol-3-yl)-amine] showed a melting point of 255 to 257 °C. In data set [1] (read-out: Ki value on SRC), the Ki is below 100 nM. For the same molecule, in data set [2], the inhibitory constant (Ki) was below 100 nM. In addition, the inhibition constant (Ki) in data set [3] was below 100 nM.

Take `c1ccc(COCc2nc(Nc3cc(C4CC4)[nH]n3)c3ccccc3n2)cc1` [IId-2, (2-Benzyloxymethyl-quinazolin-4-yl)-(5-cyclopropyl-2H-pyrazol-3-yl)-amine]: the melting point lay within 211 to 213 °C. The inhibition constant (Ki) in data set [1] (read-out: Ki value on SRC) was below 100 nM. In addition, in data set [2], the Ki was below 100 nM. In data set [3], this molecule had an inhibition constant Ki of 100 to 1000 nM.

As for `Cc1cc(Nc2cc(N3CCCCC3)nc(SCc3cccc(Cl)c3)n2)n[nH]1` [IIIa-34, [2-(3-Chloro-benzylsulfanyl)-6-(piperidin-1-yl)-pyrimidin-4-yl]-(5-methyl-2H-pyrazol-3-yl)-amine], the melting point fell in the range of 234 to 235 °C. For the same molecule, the Ki in data set [1] (read-out: Ki value for SRC) was 1000 to 6000 nM. This molecule also returned a Ki in data set [3] of 100 to 1000 nM.

As for `Cc1cccc(Sc2nc(Nc3cc(C4CC4)[nH]n3)c3ccccc3n2)c1` [IIa-23, (5-Cyclopropyl-2H-pyrazol-3-yl)-[2-(3-methylphenylsulfanyl)-quinazolin-4-yl]-amine], the Ki in data set [1] (read-out: Ki value on SRC), in data set [2] and in data set [3] was below 100 nM throughout.

Turning to `COc1cccc(Sc2nc(Nc3cc(C4CC4)[nH]n3)c3ccccc3n2)c1` [IIa-24, (5-Cyclopropyl-2H-pyrazol-3-yl)-[2-(3-methoxyphenylsulfanyl)-quinazolin-4-yl]-amine], the Ki in data set [1] (read-out: Ki value on SRC), in data set [2] and in data set [3] was below 100 nM in each case.

For `c1ccc2c(Nc3cc(C4CC4)[nH]n3)nc(Oc3ccc4c(c3)CCCC4)nc2c1` [IIb-4, (5-Cyclopropyl-2H-pyrazol-3-yl)-[2-(5,6,7,8-tetrahydronaphthalen-2-yloxy)-quinazolin-4-yl]-amine], the melting point was 277 to 279 °C. In data set [1] (read-out: Ki value on SRC), the inhibition constant Ki was below 100 nM. For the same molecule, the Ki in data set [2] is below 100 nM.

For `COC(=O)c1cccc(Oc2nc(Nc3cc(C)[nH]n3)c3ccccc3n2)c1` [IIb-9, [2-(3-Methoxycarbonylphenoxy)-quinazolin-4-yl]-(5-methyl-2H-pyrazol-3-yl)-amine], the results for the inhibition constant Ki in data set [1] (read-out: Ki value for SRC), in data set [2] and in data set [3] were 1000 to 6000 nM, below 100 nM and 100 to 1000 nM, respectively.

On to `c1ccc2cc(Sc3nc(Nc4cc(C5CC5)[nH]n4)c4ccccc4n3)ccc2c1` [IIa-27, (5-Cyclopropyl-2H-pyrazol-3-yl)-[2-(naphtalen-2-ylsulfanyl)-quinazolin-4-yl]-amine], for which the melting point was in the range of 285 to 288 °C. Moreover, the Ki in data set [1] (read-out: Ki value on SRC) was below 100 nM. The inhibitory constant (Ki) in data set [2] was below 100 nM.

As for `Cc1cc(Nc2nc(NCc3ccc(F)cc3)nc3ccccc23)n[nH]1` [IIc-13, [2-(4-Fluorobenzylamino)-quinazolin-4-yl]-(5-methyl-2H-pyrazol-3-yl)-amine], the inhibition constant (Ki) in data set [1] (read-out: Ki value on SRC) is below 100 nM; in data set [2], below 100 nM; in data set [3], 100 to 1000 nM.

Take `Cc1ccc(Sc2nc(Nc3cc(C4CC4)[nH]n3)c3ccccc3n2)cc1C` [IIa-33, (5-Cyclopropyl-2H-pyrazol-3-yl)-[2-(3,4-dimethylphenylsulfanyl)-quinazolin-4-yl]-amine]: the melting point is 255 to 256 °C. Moreover, the Ki in data set [1] (read-out: Ki value on SRC) is below 100 nM. The same molecule displayed a Ki in data set [2] below 100 nM.

In turn, `CC(=O)Nc1ccc(Sc2nc(Nc3cc(C)[nH]n3)c(C)c(-c3ccccc3)n2)cc1` [IIIa-21, [2-(4-Acetamido-phenyl-sulfanyl)-5-methyl-6-phenyl-pyrimidin-4-yl]-(5-methyl-2H-pyrazol-3-yl)-amine] yielded a melting point of 276 to 277 °C. In addition, the Ki in data set [1] (read-out: Ki value for SRC) was 1000 to 6000 nM. Besides, the inhibitory constant (Ki) in data set [3] was 1000 to 7000 nM.
